According to patent US8242145B2, “Cyclic diaryl ether compounds as antagonists of prostaglandin D2 receptors” (Panmira Pharmaceuticals, LLC, priority 2008, dated 2012):

Legend:
[1] = target: T1, recombinant human CRTH2 receptor (Homo sapiens, UniProt Q9Y5Y4); test: GTPγS binding assay; format: biochemical; conditions: +HSA; read-out: hDP2 GTPγS μM (+HSA)
T1 construct: expressed in transfected cells
T1 sequence (Q9Y5Y4 1-395): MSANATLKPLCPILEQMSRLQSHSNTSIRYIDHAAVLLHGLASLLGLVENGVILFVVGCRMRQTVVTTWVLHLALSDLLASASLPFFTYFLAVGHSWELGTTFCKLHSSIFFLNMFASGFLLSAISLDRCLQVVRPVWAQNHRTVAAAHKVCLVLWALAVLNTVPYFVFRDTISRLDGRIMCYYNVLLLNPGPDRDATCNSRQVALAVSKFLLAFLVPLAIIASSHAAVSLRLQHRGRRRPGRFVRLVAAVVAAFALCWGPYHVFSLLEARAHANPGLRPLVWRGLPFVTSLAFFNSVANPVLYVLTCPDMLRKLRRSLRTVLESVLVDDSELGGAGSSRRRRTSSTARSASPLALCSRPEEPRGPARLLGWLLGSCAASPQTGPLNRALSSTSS
Summary of the method: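 Membranes from CHO cells stably expressing recombinant receptor (~12.5 μg/well), incubated 60 min at 30° C with 0.05 nM [^35S]-GTPγS, 80 nM PGD2, 5 μM GDP in pH 7.4 Hepes buffer with 0.2% human serum albumin. Filter-bound radioactivity counted; specific binding = total minus binding without PGD2; IC50 from titration curves.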

[2] = target: T2, human DP2 receptor (Homo sapiens, UniProt Q9Y5Y4); test: DP2/CRTH2 radioligand binding assay using [3H]PGD2; conditions: hDP2 (CRTH2) binding assay
T2 construct: expressed in transfected cells
T2 sequence (Q9Y5Y4 1-395): T1 sequence (Q9Y5Y4 1-395)
Summary of the method: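 HEK293 membranes with stable recombinant human DP2, incubated with 1 nM [3H]PGD2 and compound 60 min at room temperature in pH 7.4 HEPES/MnCl2/EDTA buffer, with or without 0.2% human serum albumin.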

[3] = target: T3, human DP1 receptor (Homo sapiens, UniProt Q13258); test: DP1 radioligand binding assay using [3H]BWA868C; conditions: hDP1 binding
T3 construct: tissue Biological Specialty Corporation; host or cells: human platelets, membranes
T3 sequence (Q13258 1-359): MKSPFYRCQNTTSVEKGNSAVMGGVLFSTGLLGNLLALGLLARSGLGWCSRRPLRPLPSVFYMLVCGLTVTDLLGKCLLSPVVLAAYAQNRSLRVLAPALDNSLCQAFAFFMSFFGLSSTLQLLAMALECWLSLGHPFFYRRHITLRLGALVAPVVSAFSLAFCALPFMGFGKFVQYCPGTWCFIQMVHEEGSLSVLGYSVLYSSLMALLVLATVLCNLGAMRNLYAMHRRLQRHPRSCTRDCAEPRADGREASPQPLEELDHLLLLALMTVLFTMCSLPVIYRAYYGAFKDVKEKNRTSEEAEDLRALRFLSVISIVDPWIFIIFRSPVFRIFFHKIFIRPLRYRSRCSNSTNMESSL
Summary of the method: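 Human platelet membranes (20 μg protein/well) incubated 60 min at room temperature with 2 nM [3H]BWA868C in 50 mM Hepes, 10 mM MnCl2, 1 mM EDTA, ±0.2% human serum albumin, pH 7.4. Bound label measured after filtration; nonspecific binding defined with 10 μM BW A868C. IC50 from titration curves.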

| SMILES | IC50 [1] | IC50 [2] | IC50 [3] |
| --- | --- | --- | --- |
| COc1ccc(CC(=O)O)cc1Oc1ccc(-c2ccccc2)cc1CN1C(=O)O[C@H](c2ccccc2)[C@@H]1C [Compound 1-35, {4-Methoxy-3-[3-((4S,5R)-4-methyl-2-oxo-5-phenyl-oxazolidin-3-ylmethyl)-biphenyl-4-yloxy]-phenyl}-acetic acid] | > 1 µM | < 300 nM | > 1000 nM |
| COc1ccc(CC(=O)O)cc1Oc1ccc(-c2cnn(C)c2)cc1CN1C(=O)O[C@H](c2ccccc2)[C@@H]1C [Compound 1-43, {4-Methoxy-3-[2-((4S,5R)-4-methyl-2-oxo-5-phenyl-oxazolidin-3-ylmethyl)-4-(1-methyl-1H-pyrazol-4-yl)-phenoxy]-phenyl}-acetic acid] | 0.3 to 1 µM | < 300 nM | > 1000 nM |
| C[C@H]1[C@@H](c2ccccc2)OC(=O)N1Cc1cc(-c2cncn2C)ccc1Oc1cccc(CC(=O)O)c1 [Compound 1-22, {3-[4-(3-Methyl-3H-imidazol-4-yl)-2-((4S,5R)-4-methyl-2-oxo-5-phenyl-oxazolidin-3-ylmethyl)-phenoxy]-phenyl}-acetic acid] | > 1 µM | < 300 nM | 300 to 1000 nM |
| CCNC(=O)c1ccc(Oc2cc(CC(=O)O)ccc2OC)c(CN2C(=O)O[C@@H](c3ccccc3)[C@H]2C)c1 [Compound 1-65, {3-[4-Ethylcarbamoyl-2-((4R,5S)-4-methyl-2-oxo-5-phenyl-oxazolidin-3-ylmethyl)-phenoxy]-4-methoxy-phenyl}-acetic acid] | 0.3 to 1 µM | < 300 nM | > 1000 nM |
| C[C@H]1[C@@H](c2ccccc2)OC(=O)N1Cc1cc(Br)ccc1Oc1ccc(Cl)c(CC(=O)O)c1 [Compound 1-24, {5-[4-Bromo-2-((4S,5R)-4-methyl-2-oxo-5-phenyl-oxazolidin-3-ylmethyl)-phenoxy]-2-chloro-phenyl}-acetic acid] | > 1 µM | 300 to 1000 nM | < 300 nM |
| COc1ccc(CC(=O)O)cc1Oc1ccc(C(F)(F)F)cc1CN1C(=O)O[C@@H](c2ccccc2)[C@H]1C [Compound 1-61, {4-Methoxy-3-[2-((4R,5S)-4-methyl-2-oxo-5-phenyl-oxazolidin-3-ylmethyl)-4-trifluoromethyl-phenoxy]-phenyl}-acetic acid] | 0.3 to 1 µM | < 300 nM | > 1000 nM |
| COc1cccc(-c2ccc(Oc3cc(CC(=O)O)ccc3OC)c(CN3C(=O)O[C@H](c4ccccc4)[C@@H]3C)c2)c1 [Compound 1-38, {4-Methoxy-3-[3′-methoxy-3-((4S,5R)-4-methyl-2-oxo-5-phenyl-oxazolidin-3-ylmethyl)-biphenyl-4-yloxy]-phenyl}-acetic acid] | 0.3 to 1 µM | < 300 nM | > 1000 nM |
| C[C@@H]1[C@H](c2ccccc2)OC(=O)N1Cc1cc(C(F)(F)F)ccc1Oc1cc(CC(=O)O)ccc1OCc1ccccc1 [Compound 1-67, {4-Benzyloxy-3-[2-((4R,5S)-4-methyl-2-oxo-5-phenyl-oxazolidin-3-ylmethyl)-4-trifluoromethyl-phenoxy]-phenyl}-acetic acid] | 0.3 to 1 µM | < 300 nM | > 1000 nM |
| C[C@H]1[C@@H](c2ccccc2)OC(=O)N1Cc1cc(Br)ccc1Oc1cccc(CC(=O)O)c1 [Compound 1-15, {3-[4-Bromo-2-((4S,5R)-4-methyl-2-oxo-5-phenyl-oxazolidin-3-ylmethyl)-phenoxy]-phenyl}-acetic acid] | 0.3 to 1 µM | < 300 nM | < 300 nM |
| C[C@H]1[C@@H](c2ccccc2)OC(=O)N1Cc1cc(Br)ccc1Oc1ccc(C(F)(F)F)c(CC(=O)O)c1 [Compound 1-25, {5-[4-Bromo-2-((4S,5R)-4-methyl-2-oxo-5-phenyl-oxazolidin-3-ylmethyl)-phenoxy]-2-trifluoromethyl-phenyl}-acetic acid] | > 1 µM | 300 to 1000 nM | > 1000 nM |

Continued, values first:

| IC50 [1] | IC50 [2] | IC50 [3] | SMILES |
| --- | --- | --- | --- |
| 0.3 to 1 µM | 300 to 1000 nM | > 1000 nM | CCNC(=O)c1ccc(Oc2cccc(CC(=O)O)c2)c(CN2CCOC2=O)c1 [Compound 1-6, {3-[4-Ethylcarbamoyl-2-(2-oxo-oxazolidin-3-ylmethyl)-phenoxy]-phenyl}-acetic acid] |
| < 0.3 µM | < 300 nM | > 1000 nM | C[C@@H]1[C@H](c2ccccc2)OC(=O)N1Cc1cc(C(F)(F)F)ccc1Oc1cc(CC(=O)O)ccc1O [Compound 1-78, {4-Hydroxy-3-[2-((4R,5S)-4-methyl-2-oxo-5-phenyl-oxazolidin-3-ylmethyl)-4-trifluoromethyl-phenoxy]-phenyl}-acetic acid] |
| < 0.3 µM | < 300 nM | > 1000 nM | COc1ccc(CC(=O)O)cc1Oc1cc(Br)ccc1CN1C(=O)O[C@H](c2ccccc2)[C@@H]1C [Compound 1-81, {3-[5-Bromo-2-((4S,5R)-4-methyl-2-oxo-5-phenyl-oxazolidin-3-ylmethyl)-phenoxy]-4-methoxy-phenyl}-acetic acid] |
| < 0.3 µM | < 300 nM | > 1000 nM | COc1ccc(CC(=O)O)cc1Oc1ccc(Br)cc1CN1C(=O)O[C@@H](c2cc(F)cc(F)c2)[C@H]1C [Compound 1-63, (3-{4-Bromo-2-[(4R,5S)-5-(3,5-difluoro-phenyl)-4-methyl-2-oxo-oxazolidin-3-ylmethyl]-phenoxy}-4-methoxy-phenyl)-acetic acid] |
| < 0.3 µM | < 300 nM | > 1000 nM | C[C@@H]1[C@H](c2ccccc2)OC(=O)N1Cc1cc(Br)ccc1Oc1cc(CC(=O)O)ccc1O [Compound 1-87, {3-[4-Bromo-2-((4R,5S)-4-methyl-2-oxo-5-phenyl-oxazolidin-3-ylmethyl)-phenoxy]-4-hydroxy-phenyl}-acetic acid] |
| < 0.3 µM | < 300 nM | > 1000 nM | COc1ccc(CC(=O)O)cc1Oc1ccc(Br)cc1CN1C(=O)O[C@H]2Cc3ccccc3[C@H]21 [Compound 2-4, {3-[4-Bromo-2-((3aR,8aS)-2-oxo-8,8a-dihydro-3aH-indeno[1,2-d]oxazol-3-ylmethyl)-phenoxy]-4-methoxy-phenyl}-acetic acid] |
| < 0.3 µM | < 300 nM | > 1000 nM | O=C(O)Cc1cccc(Oc2ccc(Br)cc2CN2C(=O)OC[C@@H]2c2ccccc2)c1 [Compound 1-45, {3-[4-Bromo-2-((S)-2-oxo-4-phenyl-oxazolidin-3-ylmethyl)-phenoxy]-phenyl}-acetic acid] |
| < 0.3 µM | < 300 nM | > 1000 nM | C[C@@H]1[C@H](c2ccccc2)OC(=O)N1Cc1cc(Br)ccc1Oc1cc(CC(=O)O)cc(C(F)(F)F)c1 [Compound 1-57, {3-[4-Bromo-2-((4R,5S)-4-methyl-2-oxo-5-phenyl-oxazolidin-3-ylmethyl)-phenoxy]-5-trifluoromethyl-phenyl}-acetic acid] |
| < 0.3 µM | < 300 nM | > 1000 nM | C[C@H]1[C@@H](c2ccccc2)OC(=O)N1Cc1cc(Br)ccc1Oc1cc(CC(=O)O)cc(C(F)(F)F)c1 [Compound 1-28, {3-[4-Bromo-2-((4S,5R)-4-methyl-2-oxo-5-phenyl-oxazolidin-3-ylmethyl)-phenoxy]-5-trifluoromethyl-phenyl}-acetic acid] |
| < 0.3 µM | < 300 nM | 300 to 1000 nM | O=C(O)Cc1cccc(Oc2ccc(Br)cc2CN2C[C@@H](c3ccccc3)OC2=O)c1 [Compound 1-47, {3-[4-Bromo-2-((R)-2-oxo-5-phenyl-oxazolidin-3-ylmethyl)-phenoxy]-phenyl}-acetic acid] |
